{"source": "paper PMC9606171", "about": "“Synthetic PPAR Agonist DTMB Alleviates Alzheimer’s Disease Pathology by Inhibition of Chronic Microglial Inflammation in 5xFAD Mice” (Neurotherapeutics, 2022)", "key": {"PPARα": {"biological_target": "T1, PPARα (Homo sapiens, UniProt Q07869)", "T1 construct": "pcDNA5-GAL4-PPAR LBD, pG5-luc, and Rluc vector (as control) were transfected into HEK293A cells; expressed in transfected cells; host or cells: HEK293A", "T1 sequence (Q07869 239-466 limits assumed)": "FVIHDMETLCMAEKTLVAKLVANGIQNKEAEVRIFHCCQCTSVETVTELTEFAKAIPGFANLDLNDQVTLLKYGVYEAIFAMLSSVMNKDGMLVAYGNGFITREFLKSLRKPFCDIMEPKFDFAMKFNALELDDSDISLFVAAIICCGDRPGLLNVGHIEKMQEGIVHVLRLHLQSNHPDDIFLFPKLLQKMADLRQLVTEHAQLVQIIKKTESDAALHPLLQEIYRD", "assay": "Gal4-transactivation luciferase assay in HEK293A cells, PPARα LBD", "format": "cell-based", "experimental": "(§1) HEK293A cells were transfected with the GAL4-reporter plasmids and pGL4.74 (Promega, Madison, WI, USA) as an internal standard through electroporation using a Neon Transfection System (Invitrogen, Carlsbad, CA, USA). All vector materials were provided by Professor Yuichiro Kanno at Toho University. Cells were treated with DTMB and each positive control compound for 24 h after overnight incubation. Cells were then harvested and resuspended in luciferase lysis buffer (Promega), followed by incubation on ice for 10 min. Cell debris was removed by centrifugation at 20,000 × g at 4 °C for 10 min, and the supernatants were used for luciferase assay. Using a dual-luciferase reporter assay system (Promega), luciferase activities were measured according to the manufacturer’s instructions. Experimental firefly luciferase activities were normalized against those of Renilla luciferase."}, "PPARγ": {"biological_target": "T2, PPARγ (Homo sapiens, UniProt P37231)", "T2 construct": "pcDNA5-GAL4-PPAR LBD, pG5-luc, and Rluc vector (as control) were transfected into HEK293A cells; expressed in transfected cells; host or cells: HEK293A", "T2 sequence (P37231 238-503 limits assumed)": "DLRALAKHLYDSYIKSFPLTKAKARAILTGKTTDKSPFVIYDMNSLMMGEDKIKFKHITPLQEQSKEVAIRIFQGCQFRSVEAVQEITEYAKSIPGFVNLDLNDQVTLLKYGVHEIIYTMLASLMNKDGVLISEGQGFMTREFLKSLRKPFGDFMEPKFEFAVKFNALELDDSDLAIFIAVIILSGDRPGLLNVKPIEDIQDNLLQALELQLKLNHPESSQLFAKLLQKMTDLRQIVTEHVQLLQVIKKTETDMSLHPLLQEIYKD", "assay": "Gal4-transactivation luciferase assay in HEK293A cells, PPARγ LBD", "format": "cell-based", "experimental": "as §1"}, "[1]": {"biological_target": "T3, recombinant human PPAR β/δ LBD (Homo sapiens, UniProt Q03181)", "T3 sequence (Q03181 211-439 limits assumed)": "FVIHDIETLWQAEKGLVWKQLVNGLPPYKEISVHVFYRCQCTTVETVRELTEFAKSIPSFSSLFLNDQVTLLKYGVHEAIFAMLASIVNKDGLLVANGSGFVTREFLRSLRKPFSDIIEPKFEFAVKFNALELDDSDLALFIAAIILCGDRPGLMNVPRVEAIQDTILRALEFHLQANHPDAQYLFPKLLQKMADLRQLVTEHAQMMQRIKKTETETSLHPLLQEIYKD", "assay": "CNBr-bead pull down assay, PPAR β/δ LBD", "format": "binding", "conditions": "drug conjugated CNBr beads", "experimental": "CNBr Sepharose 4B beads were prepared and activated according to the instruction. 100 mg of CNBr activated Sepharose 4B beads were incubated with drugs or DMSO for 18 h at 4 °C. The drug conjugated beads reacted to his-tagged recombinant PPAR α, β/δ, and γ protein. After 24 h of incubation, we confirmed whether recombinant protein binds to the drug conjugated bead through western blotting experiment."}, "BV2": {"system": "BV2", "assay": "Cell viability assay (MTT), BV2", "format": "cell-based, mouse", "conditions": "48 h", "experimental": "Cell viability was measured by chromogenic assay involving the biological reduction of 3-(4,5-dimethyl-thiazol-2-yl)-2,5-diphenyltetrazoliumbromide (MTT) to formazan in living cells. Briefly, cells were seeded in 96-well plates in a final volume of 100 μL. After 24 h, the culture media were replaced with fresh media containing DTMB compounds, and the cells were cultured for another 48 h. Next, MTT (5 mg/mL in PBS) was added to the culture medium. The cells were incubated for 1 h in the dark at 37 °C, and the supernatant was then removed from the well. Total MTT solvent (4 mM HCl and 0.1% Nonidet P-40, both in isopropanol) was added to dissolve the formazan crystal, and absorbance was measured at 570 nm using a microplate reader Infinite 200 Pro NanoQuant microplate reader (TECAN, Switzerland)."}, "primary microglia": {"system": "primary microglia", "assay": "ELISA of proinflammatory cytokines, primary microglia", "format": "cell-based, mice", "conditions": "LPS or pre-aggregated human Aβ1-42, 24 h", "experimental": "Primary microglia culture was conducted as described in a previous study. Mice at postnatal day 3 mice were used for the preparation of primary microglia. Newborn mice pups were anesthetized in ice and then sacrificed. Isolated cortex and hippocampus were collected after removing the meninges. Brain tissues were dissociated by incubating in HBSS (Gibco, Gaithersburg, MD, USA) with trypsin (2.5%) for 15 min. Cell homogenates were then incubated in M-CSF (20 ng/mL, R&D Systems) supplemented with DMEM-F12 medium with 10% fetal bovine serum, 10% horse serum, 1% GlutaMAX (Gibco, MD, USA), and 1% penicillin/streptomycin (Welgene, Korea). After 10 days, microglia were purified through shaking at 260 rpm for 2 h.\nWe measured cytokine level (TNF-α, IL-1β, and IL-6) in the media of LPS (1 μg/mL) and human Aβ1-42 (5 μg/mL)-treated BV2 microglia cells and primary microglia. Human Aβ1-42 (AnaSpec, Fremont, CA, USA) were pre-aggregated in the incubator for 24 h before the treatment to the cells. BV2 cells and primary microglia cells were seeded on 12-well plates (SPL) at a density of 1 × 10^5 cells/well cultured in 1 mL of complete media. After 12 h, LPS or human Aβ1-42 were treated to cells and were further incubated for 24 h with DTMB. […]"}, "5xFAD mice": {"system": "5xFAD mice", "assay": "Bulk RNA-seq of hippocampus and cortex", "format": "in vivo", "experimental": "DTMB was synthesized from Daejung Chemicals (Korea) and was dissolved in dimethyl sulfoxide (Sigma Aldrich, St. Louis, MO, USA) for cell-based experiments. To evaluate the effects of DTMB on 5xFAD mice, DTMB (10 mg/kg) and vehicle (1% carboxymethylcellulose and 10% DMSO) were orally administrated to four groups (wild-type, wild-type + DTMB, 5xFAD, and 5xFAD + DTMB) with a 6 day per week for 3 months.\nRNA-seq libraries were prepared using the NEBNext® Ultra II Directional RNA Library Prep Kit for Illumina (BioLabs, MA, USA) and sequenced on Illumina HiSeq 2500 (San Diego, CA, USA). RNA-seq reads with adapter sequence were trimmed using cutadapt and aligned to the Mouse Ensemble Archive Release 100 by STAR [26]. Gene expression levels were quantified by RSEM [27]. Differential expression analysis was performed by DESeq2 [28], and functional enrichment of Gene ontology (GO) terms and pathways was estimated by Metascape. Pathway enrichment was estimated by GSEA [30] with the following options: “-metric log2_Ratio_of_Classes -permute gene_set.”"}, "[2]": {"conditions": "HEK293A, 24 h, various concentrations"}}, "data": [{"compound": "COc1ccc(-c2cc(=O)oc3c(C)c(OC(=O)[C@H](Cc4c[nH]c5ccccc45)NC(=O)OC(C)(C)C)ccc23)cc1", "note": "[DTMB]", "values": [{"measurement": "relative luciferase activity", "setting": "PPARα; [2]", "result": "increased luciferase activity"}, {"measurement": "transactivation (luciferase activity) compared to positive control", "setting": "PPARα; versus WY14643", "result": "stronger than the positive control"}, {"measurement": "relative luciferase activity", "setting": "PPARγ; [2]", "result": "increased luciferase activity"}, {"measurement": "PPARγ transactivation (luciferase reporter activity) compared to positive control", "setting": "PPARγ; versus positive control", "result": "lower than the positive controls"}, {"measurement": "binding to PPAR LBD (pull-down, western blot)", "setting": "[1]", "result": "binds"}, {"measurement": "cytotoxicity (MTT)", "setting": "BV2", "result": "no cytotoxicity"}, {"measurement": "level of cytokines (TNF-α, IL-1β, IL-6) induced by inflammatory signals", "setting": "primary microglia", "result": "dramatically reduced"}, {"measurement": "gene expression level of Ece1", "setting": "5xFAD mice; hippocampus", "result": "significantly increased"}, {"measurement": "expression of neprilysin", "setting": "5xFAD mice; hippocampus and cortex, not statistically significant (p-value is 0.27)", "result": "increased"}]}]}
